A short description of series [1]: Stability of sulfatinib in rat plasma QCs under storage and processing conditions. To be noted: analyzer 10°C for 4 h, −80°C for 3 weeks, room temperature for 3 h, three freeze-thaw cycles; QCs 2, 800, 1,600 ng/mL. How it is done: The stability was investigated by repeating the assay five times under different storage conditions for three rat plasma QCs (2, 800 and 1,600 ng/mL). The conditions included stability in the analyzer (4 h, 10°C), long-term storage ([…], 3 weeks), short-term storage (3 h, room temperature) and freeze-thaw cycles (three complete times).

The subject of series [2] is cytochrome P450 3A4 (CYP3A4). Set-up: method as in Li et al., 2020b. To be noted: in vitro; ref Li et al., 2020b; cited from earlier work.
A short description of series [3]: Pharmacokinetics of sulfatinib in rats, DDI study with myricetin (UPLC-MS/MS of plasma). The class given is in vivo, Sprague-Dawley (SD) rats. How it is done:
In the present assay, a Waters Xevo TQS triple quadrupole tandem mass spectrometer (Milford, MA, United States), connected to a Waters Acquity UPLC I class system (Milford, MA, United States) was applied in the method. The parameters of mass spectrometry were determined as follows before analysis: capillary voltage 2.0 kV, desolvation gas 1000 L/h, collision gas 0.15 mL/min, desolvation temperature 600°C and conical gas 150 L/h. Seperations of sulfatinib and IS were done on an Acquity UPLC BEH C18 (2.1 mm × 50 mm, 1.7 µm) set at 40°C. The autosampler used to analyze all samples was held at 10°C. The measurements were conducted using a multiple reaction monitoring (MRM) scanning mode with an electrospray ionization (ESI) source in positive ion mode. At a flow rate of 0.40 mL/min, the mobile phase was consisted of acetonitrile (A) and 0.1% formic acid aqueous solution (B), with a linear gradient scheme as follows: 0–0.5 min, A/B = 10/90%; 0.5–1.0 min, A/B = 90/10%; 1.0–1.4 min, A/B = 90/10%; 1.4–1.5 min, A/B = 10/90%; 1.5–2.0 min, A/B = 10/90%. The parameters optimized for mass spectrometry of sulfatinib and IS included cone voltages of 20 V and 30 V, and collision energies of 25 eV and 28 eV, respectively. The parent and daughter ions of sulfatinib and IS were m/z 480.98 → 329.02 and m/z 426.87 → 369.84, respectively (as indicated in Table 1).
The protein was precipitated by mixing 300 µL of acetonitrile and 10 µL of IS working solution into 100 µL of plasma. After a full vortex for 2.0 min, the mixture was centrifuged at 4°C for 10 min (13,000 rpm). Afterwards, the supernatant of 100 µL was moved into a vial, with a 2 µL injected and analyzed by UPLC-MS/MS.
Ten male Sprague-Dawley (SD) rats for this experiment, weighting 200 ± 10 g, were purchased from the Experimental Animal Center of The First Affiliated Hospital of Wenzhou Medical University (Zhejiang, China). Prior to the start of the investigation, all rats were domesticated under laboratory conditions for 1 week to minimize their suffering. The animals were kept in an appropriate environment (temperature, humidity, light conditions, freely available food and water). The experimental process of the animals was strictly adhered to the regulations for the care and use of laboratory animals as reviewed and approved by the Ethics Committee of The First Affiliated Hospital of Wenzhou Medical University (Wenzhou, China). The preparation of sulfatinib for gavage was carried out using 0.5% carboxymethylcellulose sodium (CMC-Na) solution. Half an hour after the administration of either myricetin or the same dose of 0.5% CMC-Na solution, 10 rats were simultaneously administered orally with sulfatinib (30 mg/kg). At 0.25, 0.5, 0.75, 1, 1.5, 2, 3, 4, 6, 8, 12, 24, 48 h, approximately 0.3 mL of blood was obtained from the tail vein of SD rats and transferred into heparinized polyethylene tubes. A 100 µL of plasma was obtained by centrifuging the blood at 13,000 rpm for 8 min and stored at −80°C for sample treatment.
Origin 9.0 (Originlab Inc., Northampton, MA, United States) was used in this experiment to plot the mean concentration of sulfatinib versus time in plasma. DAS software (Drug and Statistics, Version 3.0, China) was applied to fit the non-compartmental model of sulfatinib, and the main pharmacokinetic parameters of sulfatinib were obtained. Pharmacokinetics were compared for each group using SPSS software (version 24.0, Chicago, United States, SPSS Inc.) using the independent samples t-test. At p < 0.05, the difference was significant.

For series [4] the following is noted: cited from earlier work.
Details of series [5]: method as in Li et al., 2020a. To be noted: healthy subjects, single oral intake of 300 mg; ref Li et al., 2020a; cited from earlier work.
A further series deals with CYP2C9. Set-up: method as in Li et al., 2018. Particulars: studies in rats; ref Li et al., 2018; cited from earlier work.
The next series concerns CYP3A4. Set-up: method as in Li et al., 2018. Particulars: studies in rats; ref Li et al., 2018; cited from earlier work.
Where [6] appears, read: male, Sprague-Dawley, rat, in vivo, po, 30 mg/kg.

Like-named read-outs stand apart in the source and are kept apart here.

As to `Cc1cc2cc(Oc3ccnc(Nc4cccc(CS(=O)(=O)NCCN(C)C)c4)n3)ccc2[nH]1` [Sulfatinib], the “stability in rat plasma” value in series [1] is “satisfied”. Further, in series [2], the “enzyme mediating the metabolism” value is given as “major enzyme mediating the metabolism”. Moreover, in series [3] (setting [6]), the AUC0→t is 9,168.6 ± 2,531.4 ng/mL·h, the “AUC0→∞” value is recorded as 9,171.6 ± 2,532.4 ng/mL·h, the CLz/F is 58.3 ± 18.3 mL/min/kg and the Tmax (usually the time at which the peak concentration occurs) came out at 4.4 ± 0.9 h. Also, the AUC(0-t) (in general, the area under the concentration-time curve up to a stated or last time point) in series [3] (male, Sprague-Dawley, rat, in vivo, po, 30 mg/kg, AUC0→t) was 9250 ng·h/mL. Besides, in series [3] (male, Sprague-Dawley, rat, in vivo, po, 30 mg/kg, AUC0→∞), the AUC(0-inf) (usually the area under the concentration-time curve extrapolated to infinity) was 9260 ng·h/mL. In series [3] (male, Sprague-Dawley, rat, in vivo, po, 30 mg/kg, CLz/F), the CL/F (usually clearance divided by bioavailability, as obtained after extravascular dosing) is 55 mL/min/kg. The Cmax (in general, the highest concentration seen after dosing) in series [3] (male, Sprague-Dawley, rat, in vivo, po, 30 mg/kg, Cmax) is 1040 ng/mL. Further, the Tmax in series [3] (male, Sprague-Dawley, rat, in vivo, po, 30 mg/kg, Tmax) is 3.4 ± 1.7 h. Also, in series [3] (male, Sprague-Dawley, rat, in vivo, po, 30 mg/kg, t1/2), the half-life (usually how long it takes for the measured level to halve) was 3.64 h. Also, in series [3] (rat, in vivo, po, 30 mg/kg), the exposure (AUC) (as a rule, concentration integrated over time) was 8970 ng·h/mL and the “time to Cmax” value is recorded as “approximately 3.8 h”. Further, the “serum level of the original drug” value in series [4] (after oral administration, ref Li et al., 2020b) was “about 40.3%”. Also, the fecal excretion in series [4] (excretion route mainly fecal, ref Lu et al., 2024, Xu et al., 2017, Li et al., 2020a) is reported as 88%. In addition, in series [5], the AUC was 2670 ng·h/mL, the Cmax is given as 205 ng/mL, the t1/2 is 17.1 h and the “time to Cmax” value was “approximately 2 h”.

`O=c1c(O)c(-c2cc(O)c(O)c(O)c2)oc2cc(O)cc(O)c12` [myricetin, Myricetin]: in the series with CYP2C9, the “inhibition of CYP2C9” value is listed as “inhibited”. Also, the “inhibition of CYP3A4” value in the series with CYP3A4 is listed as “inhibited”. Further, the “effect of myricetin on AUC0→∞ and Cmax of sulfatinib” value in series [3] (rats, 50 mg/kg myricetin orally half an hour before 30 mg/kg sulfatinib, P > 0.05) is “no significant effect”.
